Measurements: paper PMC6081459, “Pathogen-derived HLA-E bound epitopes reveal broad primary anchor pocket tolerability and conformationally malleable peptide binding” (Nature Communications, 2018)
Like-named read-outs stand apart in the source and are kept apart here.

Experiments:
[1] = system: HLA-E-β2m complexes; assay type: binding, human; details: for Thermal melt (Tm) of peptide-refolded HLA-E-β2m complex: Protein Thermal Shift dye, 5 μg complex, ramp 25 to 95 °C, quadruplicate, median Derivative Tm
[2] = system: Mamu-E restricted CD8^+ T cells; assay type: cell-based, rhesus macaques (Macaca mulatta)
[3] = system: HLA-E-β2m complexes; assay type: binding, human; details: 200 M excess peptide, 2 h at room temperature
[4] = system: Mamu-E-restricted CD8+ T cells; assay type: cell-based, rhesus macaques

| Sequence | Thermal melt (Tm) of peptide-refolded HLA-E-β2m complex [1] | Mamu-E restricted CD8+ T cell responses (IFNγ and/or TNFα, ICS) ([2]; PBMC of six RM vaccinated with HIVGag-insert RhCMV68-1 vector, blocking with VL9 (MHC-E) or CLIP + anti-MHC-II) | Displacement of VL9 from pre-refolded HLA-E-β2m-VL9 complexes (BN-PAGE) [3] | Rhesus CD8+ T cell responses to peptide presented by Mamu-E versus HLA-E [4] | Mamu-E restricted CD8+ T cell responses (IFNγ and/or TNFα, ICS) [2] | Increase in stability (Tm) of the HLA-E-β2m complex versus no peptide refolded forms [1] |
| --- | --- | --- | --- | --- | --- | --- |
| RMYSPTSIL [RL9HIV] | not possible to obtain a reproducible thermal melt pattern | elicited Mamu-E restricted CD8^+ T cell responses | also displaced VL9 from HLA-E-β2m complexes | of comparable magnitude | – | – |
| RLPAKAPLL [Mtb44] | 50.2 °C | – | readily displaced | of comparable magnitude | elicited Mamu-E-restricted CD8^+ T cell responses | – |
| VMAPRTVLL [VL9, reference compound] | 47.5 °C | – | – | – | – | ≤ 10 °C |
